Data published in patent US5420335A, “Parenteral nutrients based on watersoluble glycerol bisacetoacetates” (priority 1993, dated 1995).
Entries after “also recorded” stand apart in the source; their conditions may differ. Like-named read-outs stand apart in the source and are kept apart here.

Columns and labels:
[1] = in words; cited from earlier work
[2] = in words, prior art; cited from earlier work
[3] = Water solubility; settings: in words

Question: For `CC(=O)CC(=O)OCC(O)CO` (stereo not drawn) [monoacetoacetin, monoacetoacetylglycerol], which metabolized in vivo [1] is on record?
Answer: The metabolized in vivo was “metabolized in vivo”.

Question: What about the water solubility [2] of the same molecule?
Answer: The water solubility was “water soluble”.

Question: Which water solubility [3] does the source give for `CC(=O)CC(=O)OCC(COC(=O)CC(C)=O)OC(=O)CC(C)=O` [trisacetoacetyl glycerol, trisacetoacetylglycerol] here?
Answer: Its water solubility is “rendered water soluble when in the presence of a glycerol bisacetoacetate; also recorded: insoluble by itself in water; also recorded: surprisingly solubilized in water when in the presence of 1,2- and 1,3-bisacetoacetyl glycerol”.
